The text below walks through data of patent publication US12427192B2, “Water soluble adjuvant and composition containing same” (Sumitomo Pharma Co., Ltd., priority 2019, dated 2025).

The test system of experiment [1] is HLA-A*02:01 transgenic mouse. Briefly: Test 6: in vivo adjuvant activity, vaccine c (Peptide SEQ ID No. 6), IFNγ ELISPOT. The conditions noted are these: added to vaccine c; 0.4 nmol per body, twice; FIG. 3. The method, then: Test 6 Evaluation of In Vivo Adjuvant Activity in HLA-A*02:01 Transgenic Mouse
The in vivo adjuvant activity of the compound of Example 1 was evaluated in the following procedure. To a vaccine prepared by mixing Peptide SEQ ID No. 6 prepared in Reference example 6 with Montanide ISA 51 VG (hereinafter, referred to as “vaccine c”) was added the compound prepared in Example 1 to prepare a vaccine. The vaccine was administered to a HLA-A*02:01 transgenic mouse, and the adjuvant activity of the vaccine was evaluated by the method of testing antigen-specific CTL induction. The GLYDGMEHL in Peptide SEQ ID No. 6 corresponds to an antigen peptide derived from an HLA-A*02:01-restricted MAGE-A10 protein.
The character for inducing CTLs specific to the antigen peptide (SEQ ID No. 6) by vaccine c was evaluated by measuring whether IFNγ can be produced upon stimulation of splenocytes from the mouse with the peptide. In addition, the character for exerting in vivo adjuvant activity by the compound in Example 1 was evaluated by comparing the number of CTLs induced by vaccine c and the number of CTLs induced by the vaccine prepared by adding the compound prepared in Example 1 to vaccine c, and checking presence or absence of the increase on the number.
Specifically, Peptide of SEQ ID No. 6 was dissolved in DMSO, and then diluted with water for injection to concentrations of 0.1 mg/mL. […]

Experiment [2] deals with HLA-A*02:01 transgenic mouse. Briefly: Test 12: in vivo adjuvant activity, cocktail vaccine g (emulsified composition 2), IFNγ ELISPOT. The conditions noted are these: added to cocktail vaccine g (emulsified composition 2); 0.04 nmol or 0.4 nmol per body, twice; FIG. 12 and 13. The method, then: Evaluation of In Vivo Adjuvant Activity in HLA-A*02:01 Transgenic Mouse
The in vivo adjuvant activity of the compound of Example 1 was evaluated in the following procedure. To a cocktail vaccine (emulsified composition 2) comprising Compound of formula 4 prepared in Reference example 8 and Peptide SEQ ID No. 3 prepared in Reference example 3 (hereinafter, referred to as “cocktail vaccine g”) was added the compound prepared in Example 1 to prepare a vaccine. The vaccine was administered to a HLA-A*02:01 transgenic mouse, and the adjuvant activity of the vaccine was evaluated by the method of testing antigen-specific CTL induction.
For example, the above emulsified composition 2 was prepared as follows. 95.8% (w/w) of medium-chain triglyceride (MYGLYOL 812), 3% (w/w) of PEG-30 dipolyhydroxy stearate, and 1.2% (w/w) of polysorbate 80 were mixed to prepare an oil-phase mixture. The amount of the preparation was adjusted as appropriate. Compound of formula 4 and Peptide SEQ ID No. 3 were mixed with pH 2.5 buffer (10 mM tartaric acid, 10% trehalose) to adjust each concentration to 3 mg/mL and 2.25 mg/mL, respectively. The prepared peptide dilution was mixed with an equal volume of the oil-phase mixture to give an emulsified product, cocktail vaccine g. […] Then, after removal of the supernatant from the wells, stained spots on the ELISPOT plate were counted.

On to `CCCCCNc1nc(N)nc(C)c1Cc1ccc(CN(C)CCOCCOCCOCCOCCO)cc1OC` [Example 1, 1-(4-{[2-amino-4-methyl-6-(pentylamino)pyrimidin-5-yl]methyl}-3-methoxyphenyl)-2-methyl-5,8,11,14-tetraoxa-2-azahexadecan-16-ol·trifluoroacetate], for which the “CTL counts responsive to Peptide SEQ ID No. 6 compared with adding no compound” value in experiment [1] is recorded as “more”. In addition, the “CTL counts responsive to Peptide SEQ ID No. 1 or SEQ ID No. 4 compared with adding no compound” value in experiment [2] is listed as “more”.
